The values below come from PubChem BioAssay AID1159564 (GlaxoSmithKline (GSK), 2015).

The assay deals with L. donovani-infected THP-1 macrophages, intracellular amastigote imaging. Put plainly: intracellular L. donovani amastigote inhibition, imaging, THP-1 host macrophages, host toxicity (AID 1159564).
[1] abbreviates: measured here: THP-1 host cell toxicity.
The mark [2] stands for this setting: measured here: amastigotes per macrophage.

Calls of active or inactive are those of the source. No rule for the calls is given here.

In general, IC50 refers to the point on the concentration scale where inhibition reaches its midpoint. As to `CCNc1cc(-c2ccccn2)nc(Nc2ccc(OC)cc2)n1`, the half-inhibitory concentration (IC50) was 0.5 µM. The half-inhibitory concentration (IC50) under setting [1] turned out to be 25 µM. Further, under setting [2], the IC50 is 0.4 µM.
As for `COC(=O)c1ccc(-c2cnc3ccc(NCc4ccccn4)nn23)cc1`, the IC50 was > 50 µM (inactive). Under setting [1], this compound had an IC50 of 13 µM. Under setting [2], this compound registered a half-maximal inhibitory concentration (IC50) of 16 µM.
On the same counts, the results for `O=C(NCCc1csc(-c2cccc(F)c2)n1)c1ccco1` are > 50 µM (inactive), > 50 µM and > 50 µM.
`O=C(Nc1nc(-c2ccccn2)cs1)C1CCc2ccccc2C1` (stereo not drawn): the concentration for half-maximal inhibition (IC50) was 0.63 µM. The same compound came in with a concentration for half-maximal inhibition (IC50) under setting [1] of 7.9 µM. In addition, the IC50 under setting [2] is 0.4 µM.
As for `c1ccc(CCNCc2cncc3nc(-c4cnccn4)n(C4CCCCC4)c23)cc1`, the IC50 is > 50 µM (inactive). Also, the half-maximal inhibitory concentration (IC50) under setting [1] was > 50 µM. Besides, under setting [2], the IC50 was > 50 µM.
On to `O=c1cc(NCCCNCc2c[nH]c3ccc(Br)cc23)[nH]c2ccccc12`, for which the IC50 is > 50 µM (inactive). Besides, the IC50 under setting [1] is > 50 µM. Further, the concentration for half-maximal inhibition (IC50) under setting [2] was > 50 µM.
Turning to `Nc1nonc1-c1nc2cncc(C(=O)N3CC[C@H](N)C3)c2n1CC1CC1`, the IC50 was 20 µM. In addition, the half-maximal inhibitory concentration (IC50) under setting [1] came to 13 µM. This compound registered an IC50 under setting [2] of 40 µM.
As for `COc1cccc(NS(=O)(=O)c2ccc3[nH]cc(C(=O)NCCC(C)C)c(=O)c3c2)c1`, the IC50 is > 50 µM (inactive). Besides, under setting [1], the half-maximal inhibitory concentration (IC50) is > 50 µM. The IC50 under setting [2] is > 50 µM.
`CCOc1ccccc1C(=O)Nc1nnc(-c2ccc3c(c2)OCO3)s1`: the IC50 is 0.5 µM. The IC50 under setting [1] was > 50 µM. The compound further returned an IC50 under setting [2] of 0.32 µM.
As for `Cc1ccc(NC(=O)C(C)n2nc([N+](=O)[O-])c(Br)c2C)cc1Cl` (stereo not drawn), the IC50 was > 50 µM (inactive). Further, the half-maximal inhibitory concentration (IC50) under setting [1] is > 50 µM. Moreover, the IC50 under setting [2] was > 50 µM.
As for `O=C(c1ccc(Cl)cc1)c1ccc(OC(=O)N2CCOCC2)cc1`, the half-inhibitory concentration (IC50) was 5 µM. The concentration for half-maximal inhibition (IC50) under setting [1] was > 50 µM. The same compound returned a 50% inhibitory concentration (IC50) under setting [2] of 2 µM.
On to `CC(C)(C)Nc1nc(-c2ccccn2)nc2ccccc12`, for which the 50% inhibitory concentration (IC50) was 1.6 µM. Further, the IC50 under setting [1] was 16 µM. In addition, the IC50 under setting [2] came to 1.3 µM.
For `Cn1c(CN2CCN(c3ncc(C(F)(F)F)cc3Cl)CC2)nc2ccncc21`, the IC50 is > 50 µM (inactive). The compound also registered an IC50 under setting [1] of 6.3 µM.
Consider `Cn1nc([N+](=O)[O-])nc1N1CCCCC1`, for which the IC50 was > 50 µM (inactive). The IC50 under setting [1] was > 50 µM. In addition, the IC50 under setting [2] was > 50 µM.
With `O=S(=O)(c1ccccc1C(F)(F)F)N1CCN(Cc2ccc(-n3ccnc3)cc2)CC1`, the IC50 was > 50 µM (inactive). The compound further had an IC50 under setting [1] of 16 µM. The same compound showed a concentration for half-maximal inhibition (IC50) under setting [2] of 25 µM.
As to `Cc1nc(C(=O)Nc2ccc3c(c2)OCO3)nn1-c1ccc(F)cc1`, the half-maximal inhibitory concentration (IC50) was 7.9 µM. The 50% inhibitory concentration (IC50) under setting [1] was > 50 µM. Besides, under setting [2], the IC50 is 2.5 µM.
On to `O=C(Nc1nc(-c2ccccn2)cs1)c1ccc(S(=O)(=O)N2CCCCC2)cc1`, for which the IC50 was 1.3 µM. The same compound displayed an IC50 under setting [1] of 13 µM. Further, the half-inhibitory concentration (IC50) under setting [2] worked out at 1 µM.
`O=c1cc(NCCCNC2CCOc3c(I)cc(Cl)cc32)[nH]c2ccccc12` (stereo not drawn): the half-inhibitory concentration (IC50) was 20 µM. Moreover, under setting [1], the IC50 worked out at 20 µM. The IC50 under setting [2] stood at 13 µM.
As for `Clc1cc(Br)ccc1OCCCCn1ccnc1`, the 50% inhibitory concentration (IC50) is 25 µM. Under setting [1], this compound had an IC50 of 32 µM. The compound also yielded an IC50 under setting [2] of 6.3 µM.
On to `COc1ccc(Oc2ccc(C(C)N(C)c3ncc4c(N)nc(N)nc4n3)cc2)cc1` (stereo not drawn), for which the IC50 was 0.1 µM. Moreover, under setting [1], the IC50 amounted to 16 µM. This compound also came in with a 50% inhibitory concentration (IC50) under setting [2] of 0.05 µM.
The corresponding values for `COc1ccc(CN(C)Cc2ccncc2)cc1-c1ccc(S(=O)(=O)NC2CCC2)s1` are > 50 µM (inactive), 20 µM and 16 µM.
On the same counts, the results for `CNc1nc(C)nc(N2CCc3cc(C(=O)NCc4ccc(-c5nccn5C)cc4Cl)ccc32)n1` are 0.79 µM, 25 µM and 0.79 µM.
The corresponding values for `COc1ccc(CNc2cc(C3CC3)nc(-c3nccn3C)n2)cc1` are 0.79 µM, 13 µM and 0.79 µM.
For `CNC(=O)Oc1ccc(C(=O)NCc2ccccc2)cc1OC(=O)NC`, the IC50 is > 50 µM (inactive). The IC50 under setting [1] is > 50 µM. In addition, the half-inhibitory concentration (IC50) under setting [2] was > 50 µM.
Turning to `O=C(NC(CO)c1ccc(F)cc1)c1ccc(-c2c[nH]c3ncccc23)s1` (stereo not drawn), the IC50 was 25 µM. The same compound had an IC50 under setting [1] of 10 µM. This compound also yielded an IC50 under setting [2] of 20 µM.
For `NC(=O)c1cc(F)ccc1Nc1nc(NC2CCC(O)CC2)ncc1Cl` (stereo not drawn), the half-maximal inhibitory concentration (IC50) was 1.3 µM. This compound also returned an IC50 under setting [1] of 0.63 µM. Also, under setting [2], the IC50 is 0.79 µM.
Consider `CC(Cn1ccnc1)NC(=O)C1CC1c1cccc(Cl)c1Cl` (stereo not drawn), for which the IC50 was > 50 µM (inactive). Further, the IC50 under setting [1] was > 50 µM. The half-inhibitory concentration (IC50) under setting [2] worked out at 10 µM.
As to `COc1ccc(C2CC(c3ccc(NS(C)(=O)=O)cc3)=NN2C(=O)c2cccs2)cc1OC` (stereo not drawn), the IC50 was 5 µM. In addition, under setting [1], the concentration for half-maximal inhibition (IC50) is > 50 µM. In addition, the IC50 under setting [2] was found to be 4 µM.
